From PMC12002339 (Proceedings of the National Academy of Sciences of the …, 2025)

Assays:
[1] = biological target: T1, OmpF3 (Escherichia coli, UniProt P02931); experiment: native MS of lipid-bound complex; format: binding; conditions: incubated with synthetic lipid; negative ion mode; MlaA-free trimer
T1 sequence (P02931 23-362): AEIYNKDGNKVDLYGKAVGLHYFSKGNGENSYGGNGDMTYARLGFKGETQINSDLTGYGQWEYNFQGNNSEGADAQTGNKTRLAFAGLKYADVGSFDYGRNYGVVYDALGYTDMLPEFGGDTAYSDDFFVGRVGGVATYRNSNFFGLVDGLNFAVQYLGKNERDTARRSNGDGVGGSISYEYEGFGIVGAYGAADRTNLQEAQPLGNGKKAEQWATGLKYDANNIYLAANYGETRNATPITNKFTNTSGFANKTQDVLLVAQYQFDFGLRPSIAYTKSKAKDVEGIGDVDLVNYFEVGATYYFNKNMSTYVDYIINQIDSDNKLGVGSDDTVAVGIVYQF

[2] = biological target: T2, OmpF3–MlaA (Escherichia coli, UniProt P02931+P76506); experiment: native MS of lipid-bound complex; format: binding; conditions: incubated with synthetic lipid
T2 sequence (P02931 23-362): T1 sequence (P02931 23-362)
T2 sequence (P76506 18-251): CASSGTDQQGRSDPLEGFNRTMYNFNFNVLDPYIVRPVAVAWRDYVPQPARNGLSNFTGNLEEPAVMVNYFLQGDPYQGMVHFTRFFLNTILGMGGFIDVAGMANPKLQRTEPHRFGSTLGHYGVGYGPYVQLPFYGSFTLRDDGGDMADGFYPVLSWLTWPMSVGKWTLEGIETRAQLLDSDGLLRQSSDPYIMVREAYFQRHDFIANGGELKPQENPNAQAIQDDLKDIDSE

[3] = biological target: T3, MlaC (Escherichia coli, UniProt P0ADV7); experiment: native MS of lipid-loaded MlaC after buffer exchange; format: binding; conditions: 5 µM delipidated MlaC, 25 µM lipid, 5 min, 2xCMC C8E4, 200 mM ammonium acetate pH 7.0, no OmpF3–MlaA
T3 sequence (P0ADV7 22-211): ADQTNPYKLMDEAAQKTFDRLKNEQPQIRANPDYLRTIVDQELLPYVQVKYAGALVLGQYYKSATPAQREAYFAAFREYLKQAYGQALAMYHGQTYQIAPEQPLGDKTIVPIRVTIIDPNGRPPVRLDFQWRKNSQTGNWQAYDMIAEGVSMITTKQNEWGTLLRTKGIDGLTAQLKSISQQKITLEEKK

[4] = biological target: the molecule itself; experiment: native MS

Molecule: CCCCCCCC/C=C\CCCCCCCC(=O)OC[C@H](COP(=O)([O-])OCC[N+](C)(C)C)OC(=O)CCCCCCC/C=C\CCCCCCCC [DOPC]
- degree of phospholipid binding [1]: DOPC binds with high affinity to OmpF3 and OmpF3–MlaA
- degree of phospholipid binding ([2]; positive and negative ion mode): DOPC binds with high affinity to OmpF3 and OmpF3–MlaA

Molecule: CCCCCCCC/C=C\CCCCCCCC(=O)OC[C@H](COP(=O)(O)OCCN)OC(=O)CCCCCCC/C=C\CCCCCCCC [DOPE]
- degree of phospholipid binding ([2]; positive and negative ion mode): DOPE binds with intermediate affinity, and its binding is strongly increased by MlaA

Molecule: CCCCCCCC/C=C\CCCCCCCC(=O)OC[C@H](COP(=O)(O)OCC(O)CO)OC(=O)CCCCCCC/C=C\CCCCCCCC (stereo partly shown) [DOPG]
- % MlaC loaded [3]: ~ 5%

Molecule: CCCCCCCCCCCCCCCCCC(=O)OC[C@H](COP(=O)(O)OCC(O)CO)OC(=O)CCCCCCCCCCCCCCCCC (stereo partly shown) [DSPG]
- degree of phospholipid binding [2]: Varying the degree of saturation (DSPG) or length (POPG) of the lipid chains

Molecule: CCCCCCCC/C=C\CCCCCCCC(=O)O[C@H](COC(=O)CCCCCCCCCCCCCCC)COP(=O)(O)OCC(O)CO (stereo partly shown) [POPG]
- degree of phospholipid binding [2]: Varying the degree of saturation (DSPG) or length (POPG) of the lipid chains

B1: OmpF (natural protein)
chain: T1 sequence (P02931 23-362)
- stoichiometry N [4]: 3
